Source: ChEMBL document CHEMBL1201862, “PubChem BioAssay data set” (2004)
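Tested at 5 concentrations; 48 h exposure; 96-well plates; endpoints linearly interpolated, else capped at highest concentration. At the GI50, growth is halved.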 Activity calls are given as the source filed them. Cut-off read from the data, not from the text of the source: active = GI50 up to about 1.1 µM and inactive = higher.

Experiments:
Test in all cases: DTP human tumour cell line panel, 48 h
PC-3 = test system: PC-3
SK-MEL-28 = test system: SK-MEL-28
EKVX = test system: EKVX
COLO 205 = test system: COLO 205
OVCAR-4 = test system: OVCAR-4
HOP-92 = test system: HOP-92
UO-31 = test system: UO-31
SR = test system: SR
SN12C = test system: SN12C
UACC-62 = test system: UACC-62
NCI-H23 = test system: NCI-H23
OVCAR-8 = test system: OVCAR-8
OVCAR-3 = test system: OVCAR-3
SK-MEL-2 = test system: SK-MEL-2
RXF 393 = test system: RXF 393
NCI-H522 = test system: NCI-H522
A498 = test system: A498
TK-10 = test system: TK-10
HCC 2998 = test system: HCC 2998
NCI/ADR-RES = test system: NCI/ADR-RES
CAKI-1 = test system: CAKI-1
NCI-H226 = test system: NCI-H226
CCRF-CEM = test system: CCRF-CEM
HL-60 = test system: HL-60
A549 = test system: A549
OVCAR-5 = test system: OVCAR-5
SNB-19 = test system: SNB-19
SK-OV-3 = test system: SK-OV-3
LOX IMVI = test system: LOX IMVI
HCT-15 = test system: HCT-15
HOP-62 = test system: HOP-62
T47D = test system: T47D
SW-620 = test system: SW-620
M14 = test system: M14
SNB-75 = test system: SNB-75
RPMI-8226 = test system: RPMI-8226
UACC-257 = test system: UACC-257
IGROV-1 = test system: IGROV-1
ACHN = test system: ACHN
MDA-N = test system: MDA-N
Hs-578T = test system: Hs-578T
U-251 = test system: U-251
SF-295 = test system: SF-295
SF-268 = test system: SF-268
786-0 = test system: 786-0
Malme-3M = test system: Malme-3M
HT-29 = test system: HT-29
KM12 = test system: KM12
SF-539 = test system: SF-539
DU-145 = test system: DU-145
NCI-H460 = test system: NCI-H460
MCF7 = test system: MCF7
HCT-116 = test system: HCT-116
SK-MEL-5 = test system: SK-MEL-5
MDA-MB-435 = test system: MDA-MB-435
K562 = test system: K562
MOLT-4 = test system: MOLT-4
MDA-MB-231 = test system: MDA-MB-231

Measured: GI50

CC(=O)Nc1ccc(/C=C2/NC(=S)N(/C=C3\C(=O)Oc4ccccc4C3=O)C2=O)cc1
32.7 µM: HCT-15
inactive: PC-3 54.5 µM | SK-MEL-28 85.7 µM | EKVX > 100 µM | COLO 205 61.8 µM | OVCAR-4 51.1 µM | HOP-92 63.2 µM | UO-31 39.5 µM | SR 39.3 µM | SN12C 94.6 µM | UACC-62 77.3 µM | NCI-H23 67.3 µM | OVCAR-8 38.6 µM | OVCAR-3 24 µM | SK-MEL-2 40.9 µM | RXF 393 > 100 µM | NCI-H522 36.7 µM | A498 87.5 µM | TK-10 55.8 µM | HCC 2998 43.2 µM | NCI/ADR-RES 33.7 µM | CAKI-1 49.5 µM | NCI-H226 > 100 µM | CCRF-CEM 45.1 µM | HL-60 40.5 µM | A549 58.9 µM | OVCAR-5 > 100 µM | SNB-19 > 100 µM | SK-OV-3 66.1 µM | LOX IMVI > 100 µM | HOP-62 48 µM | T47D 64.3 µM | SW-620 91 µM | M14 58.3 µM | SNB-75 15.8 µM | RPMI-8226 47.9 µM | UACC-257 > 100 µM | IGROV-1 49 µM | ACHN > 100 µM | MDA-N 52 µM | Hs-578T 22.5 µM | U-251 46.3 µM | SF-295 49.8 µM | SF-268 29.4 µM | 786-0 69 µM | Malme-3M > 100 µM | HT-29 44.9 µM | KM12 45.2 µM | SF-539 96.2 µM | DU-145 94 µM | NCI-H460 35.6 µM | MCF7 > 100 µM | HCT-116 52.7 µM | SK-MEL-5 77.6 µM | MDA-MB-435 75.5 µM | K562 49.4 µM | MOLT-4 48 µM | MDA-MB-231 16.2 µM

Cc1ccc2c(c1)CC1(Cc3cc(C)ccc3C1=O)C2=O
> 100 µM: HCT-15
inactive: PC-3 > 100 µM | SK-MEL-28 > 100 µM | EKVX > 100 µM | OVCAR-4 > 100 µM | HOP-92 > 100 µM | UO-31 > 100 µM | SR > 100 µM | NCI-H23 > 100 µM | OVCAR-8 > 100 µM | OVCAR-3 > 100 µM | SK-MEL-2 > 100 µM | RXF 393 > 100 µM | NCI-H522 > 100 µM | A498 > 100 µM | TK-10 > 100 µM | HCC 2998 > 100 µM | NCI/ADR-RES > 100 µM | CAKI-1 > 100 µM | CCRF-CEM > 100 µM | HL-60 > 100 µM | A549 > 100 µM | OVCAR-5 > 100 µM | SNB-19 > 100 µM | SK-OV-3 > 100 µM | LOX IMVI > 100 µM | HOP-62 > 100 µM | T47D > 100 µM | SW-620 > 100 µM | M14 > 100 µM | SNB-75 > 100 µM | RPMI-8226 > 100 µM | UACC-257 > 100 µM | IGROV-1 > 100 µM | ACHN > 100 µM | MDA-N > 100 µM | Hs-578T > 100 µM | U-251 > 100 µM | SF-295 > 100 µM | SF-268 > 100 µM | 786-0 > 100 µM | Malme-3M > 100 µM | HT-29 > 100 µM | SF-539 > 100 µM | DU-145 > 100 µM | NCI-H460 > 100 µM | MCF7 > 100 µM | HCT-116 > 100 µM | SK-MEL-5 > 100 µM | MDA-MB-435 > 100 µM | K562 > 100 µM | MOLT-4 > 100 µM | MDA-MB-231 > 100 µM

CCOP(=O)(CN=C(c1ccccc1)c1ccccc1)OCC
inactive: PC-3 > 100 µM | SK-MEL-28 > 100 µM | COLO 205 > 100 µM | OVCAR-4 > 100 µM | HOP-92 > 100 µM | UO-31 > 100 µM | SR > 100 µM | SN12C > 100 µM | NCI-H23 > 100 µM | OVCAR-8 > 100 µM | OVCAR-3 63.2 µM | SK-MEL-2 > 100 µM | NCI-H522 > 100 µM | A498 73.8 µM | TK-10 > 100 µM | HCC 2998 > 100 µM | NCI/ADR-RES > 100 µM | CAKI-1 > 100 µM | NCI-H226 > 100 µM | CCRF-CEM > 100 µM | HL-60 87.1 µM | A549 > 100 µM | OVCAR-5 > 100 µM | SNB-19 > 100 µM | SK-OV-3 > 100 µM | LOX IMVI > 100 µM | HOP-62 > 100 µM | T47D 86.7 µM | SW-620 > 100 µM | M14 > 100 µM | SNB-75 > 100 µM | RPMI-8226 > 100 µM | UACC-257 > 100 µM | IGROV-1 > 100 µM | ACHN > 100 µM | MDA-N > 100 µM | Hs-578T > 100 µM | U-251 > 100 µM | SF-295 > 100 µM | HT-29 > 100 µM | DU-145 > 100 µM | NCI-H460 > 100 µM | MCF7 > 100 µM | HCT-116 > 100 µM | SK-MEL-5 > 100 µM | MDA-MB-435 > 100 µM | K562 > 100 µM | MOLT-4 > 100 µM | MDA-MB-231 > 100 µM
> 100 µM: HCT-15
